Test: gradient 5% acetonitrile 3 min, to 50% in 2 min, to 85% in 15 min, held 3 min, 100 µL/min
Settings: column: Zorbax Extend-C18 2.1 x 50 mm; eluents: water / acetonitrile, 0.1% formic acid
Procedure, shortened: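 Retention times come from adduct peaks that were picked computationally and then checked by hand. The standards, pure and pooled in mixtures of ~100 molecules, were run on a Zorbax Extend-C18 column (2.1 × 50 mm, 1.8 μm) at 100 μL/min with water and acetonitrile, each with 0.1% formic acid. Detection was by quadrupole time-of-flight mass spectrometry in positive and negative ionization mode, with a dead volume of 40 μL and a dwell volume of 900 μL.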

Row | SMILES | RP-LC retention time
1 | O=C(NCC1CCCO1)c1cn(-c2ccc(NC(=O)C3CC3)cn2)cn1 (stereo not drawn) | 633 s
2 | COc1ccc(-c2noc(CCC(=O)O)n2)cc1 | 693 s
3 | COCC1CN(Cc2cn[nH]c2-c2ccc(OC)cc2)CCC1(F)F (stereo not drawn) | 624 s
4 | COc1ccc2oc(-c3noc(C(=O)NCCCN4CCCC4)n3)c(C)c2c1 | 671 s
5 | CCOC(=O)c1c(C)oc2ncnc(NCc3ccccn3)c12 | 671 s
6 | O=C(NC1CCCCC1)C1CCc2sc(C(=O)N3CCOCC3)cc2C1 (stereo not drawn) | 741 s
7 | O=C(Cc1cccs1)Nc1nnc(SCC(=O)N2CCCc3ccccc32)s1 | 805 s
8 | Cc1ccc(-c2cc(NC(=O)C3CC3)on2)s1 | 869 s
9 | CCCc1cc(N2CCN(C(=O)c3ccc(F)cc3)CC2)nc2nncn12 | 620 s
10 | O=C(NCc1ccc(F)cc1F)C1CCN(c2cn[nH]c(=O)c2)CC1 | 639 s
11 | COc1ccc(C2CC(=O)N(c3cccc(Br)c3)C(=O)C2)cc1OC | 876 s
12 | COc1cc(OC)cc(C(=O)N2CCC3(CC2)NC(=O)c2cc(C)ccc2N3C)c1 | 795 s
13 | Cc1ccccc1NC(=O)Cn1nc(N2CCSCC2)c2ccccc2c1=O | 892 s
14 | COc1cc(OC)cc(C(=O)N2CCC(C(=O)NCCc3csc(-c4cccs4)n3)CC2)c1 | 792 s
15 | O=C(c1ccco1)N1CCC(c2nc(C3CC3)n[nH]2)CC1 | 521 s
16 | Cc1ccc(CNC(=O)Cn2nc(N3CCCCCC3)c3ccccc3c2=O)cc1 | 1100 s
17 | CN(C[C@@H]1COCCO1)S(=O)(=O)Nc1ccc2ccc3ncc(-c4cnn(C)c4)cc3c(=O)c2c1 | 778 s
18 | O=C(C1CCC1)N1CCC2(CC1)NCCc1c2[nH]c2ccccc12 | 628 s
19 | C=CCN1C(=O)COc2ccc(-c3csc(NC(C)=O)n3)cc21 | 762 s
20 | COc1cc(NC(=O)N2CCC3(CC2)Nc2ccccc2-n2cccc23)cc(OC)c1OC | 920 s
21 | COc1cccc(CNC(=O)C2CCN(CC(=O)Nc3ccc(C)cc3)CC2)c1 | 582 s
22 | COc1ccc(-n2c(Cc3cccn3C)nnc2SCC(=O)NCC2CCCO2)cc1 (stereo not drawn) | 655 s

Row | SMILES | RP-LC retention time
23 | CCN1C(=O)Cc2cc(C(=O)N3CCN(C4CCCCC4)CC3)ccc21 | 583 s
24 | Cc1nn(CC(=O)NCCCN2CCCC2=O)c(=O)c2nn(-c3ccccc3)c(C)c12 | 642 s
25 | Cc1cccc(NC(=O)CN2C(=O)CCc3cc(S(=O)(=O)N4CCCCC4C)ccc32)c1 (stereo not drawn) | 848 s
26 | O=C(Cn1c(CN2CCCCCC2)nc2ccccc21)N1CCCCCC1 | 678 s
27 | CCC(=O)N1c2ccc(S(=O)(=O)N3CCCCC3)cc2CC1C(=O)NCc1ccc(N(C)C)cc1 (stereo not drawn) | 691 s
28 | Cc1cccc(NC(=O)N2CCC(c3nc(C(=O)N4CCCC4)c(C)o3)CC2)c1C | 781 s
29 | O=C(Nc1cccc(Br)c1)C1CC(=O)N(CCc2c[nH]c3ccc(F)cc23)C1 (stereo not drawn) | 890 s
30 | CCCn1ncc(N2CCC(C(=O)NCCCN3CCCC3=O)CC2)cc1=O | 594 s
31 | CC(C)c1ccc(S(=O)(=O)c2cnc(N3CCN(C4CCCCC4)CC3)nc2N)cc1 | 767 s
32 | Cc1sc2ccn(C)c(=O)c2c1C(=O)NCC1CCCCC1 | 816 s
33 | O=C(CN1CC(c2nc(-c3cccnc3)no2)C1)Nc1cc(C(F)(F)F)ccc1Cl | 634 s
34 | Cc1ccc(CNC(=O)c2nnc(-c3ccc(S(=O)(=O)N(C)C)cc3)o2)cc1 | 892 s
35 | Cc1ccc(NC(=O)Cn2cnc3nc(N4CCCC(C(=O)NC5CC5)C4)sc3c2=O)c(F)c1 (stereo not drawn) | 680 s
36 | O=C(CSc1ccc(F)cc1)N1CCC(COCc2ccccc2)CC1 | 1030 s
37 | COc1cccc(N2N=NC3C(=O)N(c4ccc(OC)c(OC)c4)C(=O)C32)c1 (stereo not drawn) | 852 s
38 | Cn1nc(CNC(=O)C2(C)CCCCC2)c2c1CCN(S(C)(=O)=O)C2 | 702 s
39 | O=c1nc(Oc2ccccc2)nc2ncccn12 | 688 s
40 | CC(C)Cn1cc(CCNS(=O)(=O)Cc2ccc(Cl)cc2)c2cccnc21 | 986 s
41 | COc1ccc2nc(NC(=O)Cc3csc4nc(-c5ccccc5)cn34)sc2c1 | 810 s
42 | Cc1ccc2c(c1)cc(S(=O)(=O)c1ccccc1)c(=O)n2CC(=O)N1CCCC1 | 817 s
43 | CCCN(C(=O)c1ccccc1C)c1nc(-c2ccccc2)cs1 | 1320 s
44 | O=C(CN1C(=O)C2CCCCN2c2ccc(S(=O)(=O)N3CCCC3)cc21)NC1CCCC1 (stereo not drawn) | 761 s

Row | SMILES | RP-LC retention time
45 | COc1cc(NC(=O)C2c3ccccc3C(=O)N3CCc4ccccc4C23)cc(OC)c1OC (stereo not drawn) | 776 s
46 | CCOc1ccc(-c2nn3c(Cc4ccc(OC)cc4)nnc3s2)cc1 | 1070 s
47 | Cc1cc2c(c(=O)n(-c3ccccc3)c(=O)n2CC(=O)Nc2ccc(Cl)cc2F)n1C | 873 s
48 | Cn1cc(C2=CCN(S(=O)(=O)c3ccc(F)c(F)c3)CC2)c2cccnc21 | 981 s
49 | CCOc1cc(S(=O)(=O)Nc2ncccc2C)ccc1Br | 666 s
50 | Cc1ccc(CNC(=O)C2(C)CCN(C(=O)Nc3ccc4c(c3)OCCO4)CC2)cc1 | 751 s
51 | COc1ccc(-c2csc(Cc3nc(-c4ccccc4Cl)no3)n2)cc1 | 1160 s
52 | CC(C)NC(=O)c1ccc(OCC2CCCN2C(=O)c2ccc(C#N)cc2)cc1 (stereo not drawn) | 734 s
53 | CCn1c(=O)c2ccccc2n(Cc2nc(-c3ccc(OC)cc3)no2)c1=O | 993 s
54 | COc1ccc(-c2ncc3c(n2)CCN(S(=O)(=O)c2ccc(OC)c(Cl)c2)C3)cc1 | 1080 s
55 | CC1CCN(C(=O)c2cc(S(=O)(=O)N3CCC(C(=O)N4CCC(C)CC4)CC3)cn2C)CC1 | 883 s
56 | Cc1cccc(Sc2nccnc2N2CCC(C(=O)NC3CCCCC3)CC2)c1 | 1150 s
57 | COC1C(=O)N(c2cccc(F)c2)C12CCNCC2 (stereo not drawn) | 604 s
58 | COc1ccc(NC(=O)c2csc3c2CCCC3)cc1 | 894 s
59 | Cn1cccc1C(CNC(=O)Nc1ccc(Cl)c(Cl)c1)N1CCOCC1 (stereo not drawn) | 601 s
60 | CCCCCc1nnc(NC(=O)C2CC(=O)N(CCc3c[nH]c4ccc(C)cc34)C2)s1 (stereo not drawn) | 873 s
61 | Cc1cc(N2CCN(C)CC2)nc2ccc(NC(=S)NCCC(C)C)cc12 | 572 s
62 | COc1ccc(NC(=O)C2CCCN2S(=O)(=O)c2ccc3c(c2)CCCC(=O)N3)cc1OC (stereo not drawn) | 688 s
63 | Cc1ccc(S(=O)(=O)Nc2cncc(C(=O)O)c2)cc1 | 614 s
64 | CC(C(=O)Nc1ccccc1C(F)(F)F)N1C(=O)c2ccccc2S1(=O)=O (stereo not drawn) | 828 s
65 | Cc1ccc(C)c(-c2nnc(NC(=O)c3ccccc3[N+](=O)[O-])o2)c1 | 798 s
66 | CCN1C(=O)c2cc(C(=O)NCc3ccccc3C)nn2CC1(C)C(=O)NC1CCCC1 (stereo not drawn) | 884 s

Row | SMILES | RP-LC retention time
67 | O=C(Cn1cccc(-c2nc(-c3ccccc3)no2)c1=O)Nc1ccc(Br)cc1F | 951 s
68 | N#Cc1cccc(NC(=O)CSc2nc(N3CCc4ccccc4C3)nc3ccccc23)c1 | 862 s
69 | O=C(c1nnc(-c2ccc(S(=O)(=O)N3CCOCC3)cc2)o1)N1CCCCC1 | 785 s
70 | CCN1C(=O)C2(CCN(C(=O)c3ccnn3CC)CC2)c2ccccc21 | 789 s
71 | O=C(CN1C(=O)C2CCCCN2c2ccc(C(=O)N3CCCC3)cc21)NCC1CCCO1 (stereo not drawn) | 672 s
72 | COc1ccc(OC)c(S(=O)(=O)N2[C@H]3CC[C@@H]2c2cnc(C)nc2C3)c1 | 703 s
73 | Nc1nc(N2CCN(C3CCCCC3)CC2)ncc1C(=O)NCc1ccccc1 | 627 s
74 | COc1ccc(-c2cc(=O)n(CC(=O)Nc3nc4c(s3)CCCC4)cn2)cc1 | 762 s
75 | COc1ccc(CN2C(=O)CSc3c(c4ccccc4n3C)C2C(=O)NCCCOC(C)C)cc1 (stereo not drawn) | 884 s
76 | O=C(NCC1CCCO1)C1CCN(c2ccc(=O)n(-c3cccc(Cl)c3)n2)CC1 (stereo not drawn) | 721 s
77 | COc1ccc(N2CCN(S(=O)(=O)c3cc(-c4cnn5c(C)cc(C)nc45)ccc3C)CC2)cc1 | 1170 s
78 | O=C(Nc1ccc(N2CCN(C3CCCCC3)C2=O)nc1)c1ccc(F)c(F)c1 | 886 s
79 | Fc1ccccc1-c1noc(-c2nc(-c3cnccn3)no2)n1 | 877 s
80 | O=C(Cn1cccc(-c2nc(-c3ccc(Cl)cc3)no2)c1=O)Nc1ccc(F)cc1F | 971 s
81 | Cc1nn(CC(=O)N2CCN(C)CC2)c(=O)c2nc(-c3ccccc3)sc12 | 616 s
82 | CCOc1ccccc1-c1noc(CN2C(=O)COc3cc(C)ccc32)n1 | 1050 s
83 | Cc1noc(-c2cc(=O)n(CC(=O)Nc3ccc4c(c3)OCO4)c3ccccc23)n1 | 831 s
84 | N#Cc1cccc(-c2cn3c(n2)N(C(=O)c2ccncc2)CCC3)c1 | 611 s
85 | CN(C)[C@@H]1CN(C(=O)C2CCCCC2)CC[C@@H]1CO | 585 s
86 | Cc1cc(Cl)ccc1NS(=O)(=O)c1ccc2onc(C(=O)N3CCCC3)c2c1 | 1030 s
87 | CCOc1ccc(CNC(=O)C2CCCN(c3nn4c(=O)c5c(nc4s3)CCCC5)C2)cc1OC (stereo not drawn) | 737 s
88 | COc1cc(OC)cc(-c2nc(-c3nnn(-c4ccccc4)c3C)no2)c1 | 1070 s
